Assays:
ACVR2A (human) = ACVR2A (human) (UniProt P27037); assay: KINOMEscan competition binding; details: compound 10.0 µM
ACVR2B (human) = ACVR2B (human) (UniProt Q13705); assay: KINOMEscan competition binding; details: compound 10.0 µM
BTK (human) = BTK (human) (UniProt Q06187); assay: KINOMEscan competition binding; details: compound 10.0 µM
CDK7 (human) = CDK7 (human) (UniProt P50613); assay: KINOMEscan competition binding; details: compound 10.0 µM
CLK1 (human) = CLK1 (human) (UniProt P49759); assay: KINOMEscan competition binding; details: compound 10.0 µM
CLK2 (human) = CLK2 (human) (UniProt P49760); assay: KINOMEscan competition binding; details: compound 10.0 µM
CLK4 (human) = CLK4 (human) (UniProt Q9HAZ1); assay: KINOMEscan competition binding; details: compound 10.0 µM
CSNK1D (human) = CSNK1D (human) (UniProt P48730); assay: KINOMEscan competition binding; details: compound 10.0 µM
CSNK2A1 (human) = CSNK2A1 (human) (UniProt P68400); assay: KINOMEscan competition binding; details: compound 10.0 µM
CSNK2A2 (human) = CSNK2A2 (human) (UniProt P19784); assay: KINOMEscan competition binding; details: compound 10.0 µM
DAPK1 (human) = DAPK1 (human) (UniProt P53355); assay: KINOMEscan competition binding; details: compound 10.0 µM
DAPK2 (human) = DAPK2 (human) (UniProt Q9UIK4); assay: KINOMEscan competition binding; details: compound 10.0 µM
DAPK3 (human) = DAPK3 (human) (UniProt O43293); assay: KINOMEscan competition binding; details: compound 10.0 µM
DYRK1B (human) = DYRK1B (human) (UniProt Q9Y463); assay: KINOMEscan competition binding; details: compound 10.0 µM
GAK (human) = GAK (human) (UniProt O14976); assay: KINOMEscan competition binding; details: compound 10.0 µM
GSK3A (human) = GSK3A (human) (UniProt P49840); assay: KINOMEscan competition binding; details: compound 10.0 µM
HIPK1 (human) = HIPK1 (human) (UniProt Q86Z02); assay: KINOMEscan competition binding; details: compound 10.0 µM
[1] = molecular target: JAK1 JH2 pseudokinase (human) (UniProt P23458); assay: KINOMEscan competition binding; details: compound 10.0 µM
MAP2K3 (human) = MAP2K3 (human) (UniProt P46734); assay: KINOMEscan competition binding; details: compound 10.0 µM
MAP2K4 (human) = MAP2K4 (human) (UniProt P45985); assay: KINOMEscan competition binding; details: compound 10.0 µM
MAP3K7 (human) = MAP3K7 (human) (UniProt O43318); assay: KINOMEscan competition binding; details: compound 10.0 µM
MAPK10 (human) = MAPK10 (human) (UniProt P53779); assay: KINOMEscan competition binding; details: compound 10.0 µM
MAPK8 (human) = MAPK8 (human) (UniProt P45983); assay: KINOMEscan competition binding; details: compound 10.0 µM
MKNK2 (human) = MKNK2 (human) (UniProt Q9HBH9); assay: KINOMEscan competition binding; details: compound 10.0 µM
MYLK4 (human) = MYLK4 (human) (UniProt Q86YV6); assay: KINOMEscan competition binding; details: compound 10.0 µM
NUAK2 (human) = NUAK2 (human) (UniProt Q9H093); assay: KINOMEscan competition binding; details: compound 10.0 µM
PAK2 (human) = PAK2 (human) (UniProt Q13177); assay: KINOMEscan competition binding; details: compound 10.0 µM
PIK3CB (human) = PIK3CB (human) (UniProt P42338); assay: KINOMEscan competition binding; details: compound 10.0 µM
PIK3CD (human) = PIK3CD (human) (UniProt O00329); assay: KINOMEscan competition binding; details: compound 10.0 µM
PIM1 (human) [2] = molecular target: PIM1 (human) (UniProt P11309); assay: KINOMEscan competition binding; details: compound 10.0 µM
PIM2 (human) [3] = molecular target: PIM2 (human) (UniProt Q9P1W9); assay: KINOMEscan competition binding; details: compound 10.0 µM
PIM3 (human) = PIM3 (human) (UniProt Q86V86); assay: KINOMEscan competition binding; details: compound 10.0 µM
PLK4 (human) = PLK4 (human) (UniProt O00444); assay: KINOMEscan competition binding; details: compound 10.0 µM
RIOK2 (human) = RIOK2 (human) (UniProt Q9BVS4); assay: KINOMEscan competition binding; details: compound 10.0 µM
RPS6KA1 KD2 (human) = RPS6KA1 KD2 (human) (UniProt Q15418); assay: KINOMEscan competition binding; details: compound 10.0 µM
RPS6KA2 KD2 (human) = RPS6KA2 KD2 (human) (UniProt Q15349); assay: KINOMEscan competition binding; details: compound 10.0 µM
RPS6KA6 KD2 (human) = RPS6KA6 KD2 (human) (UniProt Q9UK32); assay: KINOMEscan competition binding; details: compound 10.0 µM
STK17A (human) = STK17A (human) (UniProt Q9UEE5); assay: KINOMEscan competition binding; details: compound 10.0 µM
STK17B (human) = STK17B (human) (UniProt O94768); assay: KINOMEscan competition binding; details: compound 10.0 µM
STK24 (human) = STK24 (human) (UniProt Q9Y6E0); assay: KINOMEscan competition binding; details: compound 10.0 µM
TAOK1 (human) = TAOK1 (human) (UniProt Q7L7X3); assay: KINOMEscan competition binding; details: compound 10.0 µM
TGFBR2 (human) = TGFBR2 (human) (UniProt P37173); assay: KINOMEscan competition binding; details: compound 10.0 µM
TLK1 (human) = TLK1 (human) (UniProt Q9UKI8); assay: KINOMEscan competition binding; details: compound 10.0 µM
TTK (human) = TTK (human) (UniProt P33981); assay: KINOMEscan competition binding; details: compound 10.0 µM
[4] = molecular target: TYK2 JH2 pseudokinase (human) (UniProt P29597); assay: KINOMEscan competition binding; details: compound 10.0 µM
ZAP70 (human) = ZAP70 (human) (UniProt P43403); assay: KINOMEscan competition binding; details: compound 10.0 µM
PIM1 (human) [5] = molecular target: PIM1 (human) (UniProt P11309); assay: SelectScreen, TR FRET
PIM2 (human) [6] = molecular target: PIM2 (human) (UniProt Q9P1W9); assay: SelectScreen, TR FRET
AAK1 (human) = AAK1 (human) (UniProt Q2M2I8); assay: KINOMEscan competition binding; details: compound 10.0 µM
BMP2K (human) = BMP2K (human) (UniProt Q9NSY1); assay: KINOMEscan competition binding; details: compound 10.0 µM
CSNK1G2 (human) = CSNK1G2 (human) (UniProt P78368); assay: KINOMEscan competition binding; details: compound 10.0 µM
[7] = system: EIF2AK4 KD2 (human), Q9P2K8 [S808G]; assay: KINOMEscan competition binding; details: compound 10.0 µM
PDGFRB (human) = PDGFRB (human) (UniProt P09619); assay: KINOMEscan competition binding; details: compound 10.0 µM
PIK3CG (human) = PIK3CG (human) (UniProt P48736); assay: KINOMEscan competition binding; details: compound 10.0 µM
PLK1 (human) = PLK1 (human) (UniProt P53350); assay: KINOMEscan competition binding; details: compound 10.0 µM
RIOK1 (human) = RIOK1 (human) (UniProt Q9BRS2); assay: KINOMEscan competition binding; details: compound 10.0 µM
RIOK3 (human) = RIOK3 (human) (UniProt O14730); assay: KINOMEscan competition binding; details: compound 10.0 µM
RPS6KA4 KD2 (human) = RPS6KA4 KD2 (human) (UniProt O75676); assay: KINOMEscan competition binding; details: compound 10.0 µM
RPS6KA5 KD2 (human) = RPS6KA5 KD2 (human) (UniProt O75582); assay: KINOMEscan competition binding; details: compound 10.0 µM
SRPK1 (human) = SRPK1 (human) (UniProt Q96SB4); assay: KINOMEscan competition binding; details: compound 10.0 µM
SRPK3 (human) = SRPK3 (human) (UniProt Q9UPE1); assay: KINOMEscan competition binding; details: compound 10.0 µM
TAOK3 (human) = TAOK3 (human) (UniProt Q9H2K8); assay: KINOMEscan competition binding; details: compound 10.0 µM

Sequence of PIM2 (human) (Q9P1W9 whole entry, looked up): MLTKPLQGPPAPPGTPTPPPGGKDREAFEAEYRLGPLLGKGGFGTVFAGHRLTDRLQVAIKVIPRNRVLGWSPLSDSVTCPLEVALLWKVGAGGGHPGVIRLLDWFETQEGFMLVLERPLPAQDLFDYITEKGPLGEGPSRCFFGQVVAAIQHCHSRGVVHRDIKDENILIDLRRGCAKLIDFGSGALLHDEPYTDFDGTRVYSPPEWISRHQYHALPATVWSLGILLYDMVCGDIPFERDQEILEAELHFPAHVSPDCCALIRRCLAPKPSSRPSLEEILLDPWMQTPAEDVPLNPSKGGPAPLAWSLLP
Sequence of PIM1 (human) (P11309 whole entry, looked up): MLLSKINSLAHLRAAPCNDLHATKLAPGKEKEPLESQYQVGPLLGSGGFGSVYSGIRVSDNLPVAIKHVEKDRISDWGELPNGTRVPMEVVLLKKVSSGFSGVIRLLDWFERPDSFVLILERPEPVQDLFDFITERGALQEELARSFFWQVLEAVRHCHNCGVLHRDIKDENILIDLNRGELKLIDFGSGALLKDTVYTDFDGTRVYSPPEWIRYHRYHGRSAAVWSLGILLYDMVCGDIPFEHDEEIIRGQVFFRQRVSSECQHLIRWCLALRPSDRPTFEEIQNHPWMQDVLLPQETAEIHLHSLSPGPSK
Sequence of CLK2 (human) (P49760 whole entry, looked up): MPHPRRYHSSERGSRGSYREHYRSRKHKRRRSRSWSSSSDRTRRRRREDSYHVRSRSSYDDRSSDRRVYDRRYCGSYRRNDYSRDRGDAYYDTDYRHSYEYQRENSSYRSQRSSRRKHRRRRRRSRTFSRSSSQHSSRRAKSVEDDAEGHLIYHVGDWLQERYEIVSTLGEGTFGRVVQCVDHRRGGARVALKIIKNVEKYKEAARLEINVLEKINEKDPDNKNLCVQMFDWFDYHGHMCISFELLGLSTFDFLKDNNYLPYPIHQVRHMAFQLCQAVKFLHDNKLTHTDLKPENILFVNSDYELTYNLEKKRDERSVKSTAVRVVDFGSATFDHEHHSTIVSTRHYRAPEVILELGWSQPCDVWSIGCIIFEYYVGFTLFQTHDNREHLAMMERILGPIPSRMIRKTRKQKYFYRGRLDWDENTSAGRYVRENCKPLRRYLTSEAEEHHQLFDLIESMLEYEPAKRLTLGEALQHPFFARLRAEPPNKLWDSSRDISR
Sequence of CSNK2A1 (human) (P68400 whole entry, looked up): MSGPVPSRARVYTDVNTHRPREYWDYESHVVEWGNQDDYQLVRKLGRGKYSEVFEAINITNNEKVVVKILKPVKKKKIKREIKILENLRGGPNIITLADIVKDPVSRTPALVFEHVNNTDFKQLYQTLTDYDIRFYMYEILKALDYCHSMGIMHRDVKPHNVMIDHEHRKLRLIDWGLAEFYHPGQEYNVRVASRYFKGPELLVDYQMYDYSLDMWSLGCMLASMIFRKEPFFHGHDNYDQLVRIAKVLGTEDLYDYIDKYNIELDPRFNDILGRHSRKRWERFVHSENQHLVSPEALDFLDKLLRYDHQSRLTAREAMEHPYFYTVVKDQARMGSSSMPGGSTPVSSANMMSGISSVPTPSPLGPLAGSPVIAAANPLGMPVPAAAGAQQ
Sequence of CLK1 (human) (P49759 whole entry, looked up): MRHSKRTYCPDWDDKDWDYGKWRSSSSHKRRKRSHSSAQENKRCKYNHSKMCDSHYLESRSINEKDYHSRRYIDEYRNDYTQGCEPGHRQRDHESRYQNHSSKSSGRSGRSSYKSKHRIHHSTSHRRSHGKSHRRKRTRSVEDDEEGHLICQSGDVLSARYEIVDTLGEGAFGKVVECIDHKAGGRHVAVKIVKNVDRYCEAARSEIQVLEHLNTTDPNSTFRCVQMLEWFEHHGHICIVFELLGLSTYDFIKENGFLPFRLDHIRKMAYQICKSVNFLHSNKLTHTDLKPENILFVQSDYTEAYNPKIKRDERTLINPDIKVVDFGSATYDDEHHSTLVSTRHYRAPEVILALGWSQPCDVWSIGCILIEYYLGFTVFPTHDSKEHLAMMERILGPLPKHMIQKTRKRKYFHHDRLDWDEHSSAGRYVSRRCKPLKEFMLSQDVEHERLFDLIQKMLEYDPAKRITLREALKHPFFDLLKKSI
Sequence of DAPK1 (human) (P53355 whole entry, looked up): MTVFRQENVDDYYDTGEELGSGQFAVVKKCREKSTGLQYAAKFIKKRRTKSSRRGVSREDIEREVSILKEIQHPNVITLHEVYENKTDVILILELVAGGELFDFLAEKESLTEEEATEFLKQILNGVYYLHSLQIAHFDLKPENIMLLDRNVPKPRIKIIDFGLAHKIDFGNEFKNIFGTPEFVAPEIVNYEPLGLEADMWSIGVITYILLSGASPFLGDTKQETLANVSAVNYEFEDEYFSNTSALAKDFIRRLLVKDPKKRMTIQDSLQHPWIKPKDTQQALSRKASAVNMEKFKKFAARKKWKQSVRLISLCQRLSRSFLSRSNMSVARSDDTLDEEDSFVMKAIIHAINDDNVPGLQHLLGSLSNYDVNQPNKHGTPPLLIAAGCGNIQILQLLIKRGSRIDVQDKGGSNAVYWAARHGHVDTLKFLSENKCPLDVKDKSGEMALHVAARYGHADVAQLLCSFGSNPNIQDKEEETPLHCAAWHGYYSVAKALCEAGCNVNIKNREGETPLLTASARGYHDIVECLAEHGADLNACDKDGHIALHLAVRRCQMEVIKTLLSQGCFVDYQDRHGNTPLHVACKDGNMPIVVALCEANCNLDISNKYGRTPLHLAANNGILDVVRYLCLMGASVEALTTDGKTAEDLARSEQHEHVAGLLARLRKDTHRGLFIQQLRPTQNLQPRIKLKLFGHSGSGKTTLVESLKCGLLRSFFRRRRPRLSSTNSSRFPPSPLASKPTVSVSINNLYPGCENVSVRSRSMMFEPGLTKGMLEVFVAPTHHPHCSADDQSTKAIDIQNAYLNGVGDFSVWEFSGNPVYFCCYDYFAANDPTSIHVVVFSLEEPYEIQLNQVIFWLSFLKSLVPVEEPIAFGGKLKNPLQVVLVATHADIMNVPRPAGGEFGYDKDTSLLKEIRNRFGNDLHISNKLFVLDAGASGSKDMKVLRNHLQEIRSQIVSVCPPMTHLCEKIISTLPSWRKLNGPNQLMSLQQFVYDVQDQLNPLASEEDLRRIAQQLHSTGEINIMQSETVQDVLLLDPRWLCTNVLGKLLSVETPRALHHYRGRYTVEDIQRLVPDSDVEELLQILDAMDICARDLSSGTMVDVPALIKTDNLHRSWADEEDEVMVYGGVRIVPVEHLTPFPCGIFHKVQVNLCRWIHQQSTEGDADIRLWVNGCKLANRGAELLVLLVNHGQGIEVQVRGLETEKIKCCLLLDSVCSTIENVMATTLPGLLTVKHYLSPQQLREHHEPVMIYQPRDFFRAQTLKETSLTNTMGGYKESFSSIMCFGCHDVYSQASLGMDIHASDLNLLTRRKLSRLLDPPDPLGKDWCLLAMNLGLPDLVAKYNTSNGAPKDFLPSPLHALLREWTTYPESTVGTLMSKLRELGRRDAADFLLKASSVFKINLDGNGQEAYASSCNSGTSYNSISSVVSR
Sequence of ZAP70 (human) (P43403 whole entry, looked up): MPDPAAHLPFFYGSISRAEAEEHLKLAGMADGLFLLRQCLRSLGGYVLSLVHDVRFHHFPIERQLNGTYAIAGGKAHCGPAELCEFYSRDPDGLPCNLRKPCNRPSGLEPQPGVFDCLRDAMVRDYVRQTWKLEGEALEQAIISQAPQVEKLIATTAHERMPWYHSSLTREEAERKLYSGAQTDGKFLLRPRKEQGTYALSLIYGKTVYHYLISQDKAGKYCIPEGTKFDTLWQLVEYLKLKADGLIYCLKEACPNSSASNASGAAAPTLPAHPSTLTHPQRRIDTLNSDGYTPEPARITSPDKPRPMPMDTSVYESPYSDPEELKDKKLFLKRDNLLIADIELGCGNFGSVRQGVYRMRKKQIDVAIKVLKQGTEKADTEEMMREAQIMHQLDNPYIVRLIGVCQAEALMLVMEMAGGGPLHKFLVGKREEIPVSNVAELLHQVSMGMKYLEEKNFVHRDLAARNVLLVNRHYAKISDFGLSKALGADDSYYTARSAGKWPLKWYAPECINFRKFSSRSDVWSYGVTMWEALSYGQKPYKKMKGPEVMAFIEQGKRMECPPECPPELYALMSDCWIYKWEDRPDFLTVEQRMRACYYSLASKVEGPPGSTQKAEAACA
Sequence of CSNK2A2 (human) (P19784 whole entry, looked up): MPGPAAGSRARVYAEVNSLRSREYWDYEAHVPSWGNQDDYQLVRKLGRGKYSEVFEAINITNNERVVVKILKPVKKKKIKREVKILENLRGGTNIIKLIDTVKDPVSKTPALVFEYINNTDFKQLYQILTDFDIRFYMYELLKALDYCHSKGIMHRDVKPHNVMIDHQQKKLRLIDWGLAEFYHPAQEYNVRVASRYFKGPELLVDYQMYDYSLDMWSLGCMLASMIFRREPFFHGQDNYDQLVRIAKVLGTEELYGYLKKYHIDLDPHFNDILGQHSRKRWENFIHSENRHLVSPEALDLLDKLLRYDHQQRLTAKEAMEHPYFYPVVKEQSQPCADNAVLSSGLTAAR

N=C1NC(=O)/C(=C/c2ccc(-c3cccc4cc[nH]c34)o2)S1
kinase still bound, per cent of control (ACVR2A (human)): 25%
kinase still bound, per cent of control (ACVR2B (human)): 20%
kinase still bound, per cent of control (BTK (human)): 18%
kinase still bound, per cent of control (CDK7 (human)): 20%
kinase still bound, per cent of control (CLK1 (human)): 17%
kinase still bound, per cent of control (CLK2 (human)): 7.7%
kinase still bound, per cent of control (CLK4 (human)): 20%
kinase still bound, per cent of control (CSNK1D (human)): 30%
kinase still bound, per cent of control (CSNK2A1 (human)): 26%
kinase still bound, per cent of control (CSNK2A2 (human)): 24%
kinase still bound, per cent of control (DAPK1 (human)): 4.4%
kinase still bound, per cent of control (DAPK2 (human)): 12%
kinase still bound, per cent of control (DAPK3 (human)): 16%
kinase still bound, per cent of control (DYRK1B (human)): 7.4%
kinase still bound, per cent of control (GAK (human)): 5%
kinase still bound, per cent of control (GSK3A (human)): 20%
kinase still bound, per cent of control (HIPK1 (human)): 0.45%
kinase still bound, per cent of control [1]: 30%
kinase still bound, per cent of control (MAP2K3 (human)): 17%
kinase still bound, per cent of control (MAP2K4 (human)): 3.9%
kinase still bound, per cent of control (MAP3K7 (human)): 34%
kinase still bound, per cent of control (MAPK10 (human)): 31%
kinase still bound, per cent of control (MAPK8 (human)): 14%
kinase still bound, per cent of control (MKNK2 (human)): 11%
kinase still bound, per cent of control (MYLK4 (human)): 32%
kinase still bound, per cent of control (NUAK2 (human)): 21%
kinase still bound, per cent of control (PAK2 (human)): 32%
kinase still bound, per cent of control (PIK3CB (human)): 4.5%
kinase still bound, per cent of control (PIK3CD (human)): 23%
kinase still bound, per cent of control (PIM1 (human) [2]): 4.9%
kinase still bound, per cent of control (PIM2 (human) [3]): 0.45%
kinase still bound, per cent of control (PIM3 (human)): 4%
kinase still bound, per cent of control (PLK4 (human)): 18%
kinase still bound, per cent of control (RIOK2 (human)): 5.5%
kinase still bound, per cent of control (RPS6KA1 KD2 (human)): 17%
kinase still bound, per cent of control (RPS6KA2 KD2 (human)): 24%
kinase still bound, per cent of control (RPS6KA6 KD2 (human)): 30%
kinase still bound, per cent of control (STK17A (human)): 0.05%
kinase still bound, per cent of control (STK17B (human)): 0.4%
kinase still bound, per cent of control (STK24 (human)): 27%
kinase still bound, per cent of control (TAOK1 (human)): 6%
kinase still bound, per cent of control (TGFBR2 (human)): 5.8%
kinase still bound, per cent of control (TLK1 (human)): 22%
kinase still bound, per cent of control (TTK (human)): 21%
kinase still bound, per cent of control [4]: 2.2%
kinase still bound, per cent of control (ZAP70 (human)): 8.2%
IC50 (PIM1 (human) [5]): 0.961 µM
IC50 (PIM2 (human) [6]): 1.77 µM

O=C1NC(=O)/C(=C/c2c[nH]c(=O)c(-c3ccc(C(=O)Nc4ccc(N5CCNCC5)cc4)cc3)c2)S1
kinase still bound, per cent of control (AAK1 (human)): 4.4%
kinase still bound, per cent of control (BMP2K (human)): 22%
kinase still bound, per cent of control (CLK1 (human)): 16%
kinase still bound, per cent of control (CLK2 (human)): 0.45%
kinase still bound, per cent of control (CSNK1G2 (human)): 24%
kinase still bound, per cent of control (CSNK2A1 (human)): 24%
kinase still bound, per cent of control (CSNK2A2 (human)): 32%
kinase still bound, per cent of control (DAPK1 (human)): 3.6%
kinase still bound, per cent of control (DAPK2 (human)): 6.4%
kinase still bound, per cent of control (DAPK3 (human)): 4.8%
kinase still bound, per cent of control [7]: 27%
kinase still bound, per cent of control (HIPK1 (human)): 9%
kinase still bound, per cent of control (PDGFRB (human)): 0%
kinase still bound, per cent of control (PIK3CB (human)): 2.4%
kinase still bound, per cent of control (PIK3CG (human)): 22%
kinase still bound, per cent of control (PIM1 (human) [2]): 9.5%
kinase still bound, per cent of control (PIM2 (human) [3]): 1.2%
kinase still bound, per cent of control (PIM3 (human)): 10%
kinase still bound, per cent of control (PLK1 (human)): 17%
kinase still bound, per cent of control (RIOK1 (human)): 14%
kinase still bound, per cent of control (RIOK3 (human)): 13%
kinase still bound, per cent of control (RPS6KA2 KD2 (human)): 29%
kinase still bound, per cent of control (RPS6KA4 KD2 (human)): 0.95%
kinase still bound, per cent of control (RPS6KA5 KD2 (human)): 19%
kinase still bound, per cent of control (SRPK1 (human)): 31%
kinase still bound, per cent of control (SRPK3 (human)): 28%
kinase still bound, per cent of control (STK17A (human)): 6.3%
kinase still bound, per cent of control (STK17B (human)): 0.6%
kinase still bound, per cent of control (TAOK3 (human)): 26%
kinase still bound, per cent of control (ZAP70 (human)): 11%

From the kinase profiling compilation of Christmann-Franck et al. (2016)
